Experimental data as given in ChEMBL document CHEMBL5247652, “Discovery of Novel Substrate-Competitive Lysine Methyltransferase G9a Inhibitors as Anticancer Agents” (J Med Chem, 2023).
Values after ≈ are worked out from the molar mass of the structure shown. Active and inactive are the calls of the source. The calls are words filed in the database; no cut-off is given here.

Tests used:
MOLT-4 [1] = test: Antiproliferative activity against human MOLT-4 cells assessed as inhibition of cell growth with replenishment of medium with compound on day 4 and 7 by ATPlite assay; assay type: functional
[2] = Aqueous solubility of compound at pH 7.4 measured for 1 hr by UV-plate reader analysis; assay type: physicochemical; details: buffer
[3] = Permeability of compound by PAMPA assay; assay type: ADME; details: for Papp: read-out: permeability
[4] = Microsomal stability in mouse liver microsomes assessed as parent compound remaining after 30 mins in presence of NADPH by LC -MS/MS analysis; assay type: ADME, Microsome; details: read-out: Stability
[5] = Microsomal stability in human liver microsomes assessed as parent compound remaining after 30 mins in presence of NADPH by LC -MS/MS analysis; assay type: ADME, Microsome; details: read-out: Stability
MOLT-4 [6] = test: Antiproliferative activity against human MOLT-4 cells assessed as inhibition of cell growth with replenishment of medium with compound on day 4 and 7 and measured after 12 days by ATPlite assay; assay type: functional; details: MOLT-4, 288 h, time 12 day
[7] = biological target: T1, Histone-lysine N-methyltransferase EHMT2 (Homo sapiens, UniProt Q96KQ7); test: Inhibition of G9a (unknown origin)
T1 sequence (Q96KQ7 whole entry): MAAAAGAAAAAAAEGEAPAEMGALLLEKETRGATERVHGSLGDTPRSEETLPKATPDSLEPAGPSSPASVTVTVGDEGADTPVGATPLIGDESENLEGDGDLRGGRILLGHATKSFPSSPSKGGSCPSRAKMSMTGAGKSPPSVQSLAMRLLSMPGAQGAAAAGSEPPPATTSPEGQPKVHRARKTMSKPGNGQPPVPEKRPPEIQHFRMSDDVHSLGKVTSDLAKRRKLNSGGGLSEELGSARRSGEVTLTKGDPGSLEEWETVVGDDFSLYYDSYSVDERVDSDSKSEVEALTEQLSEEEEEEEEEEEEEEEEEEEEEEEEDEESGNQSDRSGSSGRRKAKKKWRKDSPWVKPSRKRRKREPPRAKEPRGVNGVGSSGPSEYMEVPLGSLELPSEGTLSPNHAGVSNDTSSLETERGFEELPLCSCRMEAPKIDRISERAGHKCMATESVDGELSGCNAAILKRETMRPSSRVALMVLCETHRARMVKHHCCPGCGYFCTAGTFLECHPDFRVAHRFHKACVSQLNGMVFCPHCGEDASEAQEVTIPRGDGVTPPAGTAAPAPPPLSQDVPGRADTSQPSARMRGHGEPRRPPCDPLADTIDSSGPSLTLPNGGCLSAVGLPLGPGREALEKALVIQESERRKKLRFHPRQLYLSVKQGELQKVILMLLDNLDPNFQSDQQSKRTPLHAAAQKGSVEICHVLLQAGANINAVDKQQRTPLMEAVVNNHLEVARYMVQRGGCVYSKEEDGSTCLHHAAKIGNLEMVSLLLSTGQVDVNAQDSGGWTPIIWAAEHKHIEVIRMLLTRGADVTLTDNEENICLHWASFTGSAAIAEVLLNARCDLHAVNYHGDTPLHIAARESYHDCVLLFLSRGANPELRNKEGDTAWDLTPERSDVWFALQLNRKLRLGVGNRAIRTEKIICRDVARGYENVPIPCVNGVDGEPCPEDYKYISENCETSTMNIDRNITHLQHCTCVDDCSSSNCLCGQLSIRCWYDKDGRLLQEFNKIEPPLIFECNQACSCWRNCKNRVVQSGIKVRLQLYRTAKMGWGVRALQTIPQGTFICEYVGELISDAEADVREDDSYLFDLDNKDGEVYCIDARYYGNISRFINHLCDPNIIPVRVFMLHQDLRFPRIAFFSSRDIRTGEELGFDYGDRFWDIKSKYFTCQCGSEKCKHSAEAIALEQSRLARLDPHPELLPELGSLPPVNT

[8] = biological target: T2, Histone-lysine N-methyltransferase EHMT1 (Homo sapiens, UniProt Q9H9B1); test: Inhibition of GLP (unknown origin)
T2 sequence (Q9H9B1 whole entry): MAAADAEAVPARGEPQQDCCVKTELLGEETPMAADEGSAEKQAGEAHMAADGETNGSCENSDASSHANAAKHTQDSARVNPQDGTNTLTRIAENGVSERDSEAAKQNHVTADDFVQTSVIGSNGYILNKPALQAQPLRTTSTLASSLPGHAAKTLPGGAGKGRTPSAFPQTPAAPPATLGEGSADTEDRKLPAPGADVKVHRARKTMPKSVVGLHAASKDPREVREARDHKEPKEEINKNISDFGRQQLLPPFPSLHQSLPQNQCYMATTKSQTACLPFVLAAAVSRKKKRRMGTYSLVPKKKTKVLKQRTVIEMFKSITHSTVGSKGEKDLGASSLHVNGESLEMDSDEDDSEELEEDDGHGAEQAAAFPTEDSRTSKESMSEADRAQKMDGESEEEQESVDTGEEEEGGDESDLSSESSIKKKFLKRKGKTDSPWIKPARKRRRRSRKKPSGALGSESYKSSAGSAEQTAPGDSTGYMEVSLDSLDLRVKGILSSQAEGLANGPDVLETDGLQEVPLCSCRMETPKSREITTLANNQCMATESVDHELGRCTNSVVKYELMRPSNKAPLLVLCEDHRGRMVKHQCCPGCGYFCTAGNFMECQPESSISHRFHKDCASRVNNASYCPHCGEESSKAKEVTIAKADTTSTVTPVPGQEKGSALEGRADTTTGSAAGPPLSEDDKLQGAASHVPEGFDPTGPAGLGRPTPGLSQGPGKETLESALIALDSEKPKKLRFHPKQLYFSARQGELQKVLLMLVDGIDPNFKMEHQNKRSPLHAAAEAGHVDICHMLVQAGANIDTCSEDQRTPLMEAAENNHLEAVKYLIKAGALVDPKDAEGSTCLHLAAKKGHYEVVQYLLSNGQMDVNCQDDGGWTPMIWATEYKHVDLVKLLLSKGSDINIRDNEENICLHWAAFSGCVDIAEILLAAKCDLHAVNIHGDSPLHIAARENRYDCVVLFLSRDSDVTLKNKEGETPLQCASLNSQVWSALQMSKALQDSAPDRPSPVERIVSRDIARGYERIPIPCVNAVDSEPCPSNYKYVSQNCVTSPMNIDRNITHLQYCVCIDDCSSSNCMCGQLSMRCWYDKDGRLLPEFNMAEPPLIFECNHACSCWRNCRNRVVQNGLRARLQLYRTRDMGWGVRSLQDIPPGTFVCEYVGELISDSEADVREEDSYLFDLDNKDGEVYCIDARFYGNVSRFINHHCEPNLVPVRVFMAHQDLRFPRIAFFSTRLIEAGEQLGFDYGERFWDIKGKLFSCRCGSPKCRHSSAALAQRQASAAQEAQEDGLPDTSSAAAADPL

[9] = biological target: T1, Histone-lysine N-methyltransferase EHMT2; test: Inhibition of N-terminal GST-tagged human recombinant G9a (785 to 1210 residues) expressed in baculovirus infected Sf9 cells incubated for 1 hr by AlphaLISA analysis
MOLT-4 [10] = test: Downregulation of H3K9 dimethylation in human MOLT-4 cells at 0.1 uM by Western blot analysis; assay type: functional, cell-based
MOLT-4 [11] = test: Downregulation of H3K9 dimethylation in human MOLT-4 cells at 1 uM by Western blot analysis; assay type: functional, cell-based
[12] = Cmax in ICR mouse at 25 mg/kg, ip; assay type: ADME, organism-based; set-up: dose 25 mg/kg, route ip; details: in vivo
[13] = AUC (0 to infinity) in ICR mouse at 25 mg/kg, ip; assay type: ADME, organism-based; set-up: dose 25 mg/kg, route ip; details: in vivo
[14] = Tmax in ICR mouse at 25 mg/kg, ip; assay type: ADME, organism-based; details: in vivo
[15] = Half life in ICR mouse at 25 mg/kg, ip; assay type: ADME, organism-based; details: in vivo

SMILES | GI50 (MOLT-4 [1]) [µM] | solubility at 1 h [2] [µM] | remaining at 0.5 h [4] [%] | remaining at 0.5 h [5] [%] | GI50 (MOLT-4 [6]) [µM] | IC50 [9] [µM] | Papp [3] [×10⁻⁶ cm/s] | also measured
COc1cc2c(NC3CCN(C(C)C)CC3)nc(C3CCCCC3)nc2cc1OCCCN1CCCC1 | 0.188 | > 200 | 67 | 89.7 | 0.188 | – | – | permeability [3]: 1.89 10^-6 cm/s
COc1cc2c(cc1C1=CCN(C)CCC1)N=C(N)C21CCC1 | – | – | – | – | – | – | – | IC50 [7]: 0.0126 µM; IC50 [8]: 0.0757 µM
Cc1c(C(=O)N[C@@H](CCC2CC2)C(=O)Nc2ccc(C#N)cc2)[nH]c2c1C(=O)CC(C)(C)C2 | 0.0213 | 13.6 (≈ 6.07 µg/mL) | 19.3 | 55.5 | 0.0213 | 0.027 | 3.12 | IC50 ([9]; sf9): 0.027 µM; Activity (MOLT-4 [10]): Active
Cc1c(C(=O)N[C@H](CCC2CC2)C(=O)Nc2ccccc2)[nH]c2c1C(=O)CC(C)(C)C2 | – | – | – | – | 1.79 | 2.1 | – | Activity (MOLT-4 [11]): inactive; Cmax [12]: 4.14 µM; AUC(0-inf) [13]: 10.3 µM·h; Tmax [14]: 4 h; half-life [15]: 0.58 h
CCc1c(C(=O)N[C@@H](CCC2CC2)C(=O)Nc2ccc(C#N)cc2)[nH]c2c1C(=O)CC(C)(C)C2 | 0.22 | 4 (≈ 1.84 µg/mL) | 40.5 | 51.9 | – | 0.05 | – | –
Cc1c(C(=O)N[C@@H](CCC2CC2)C(=O)Nc2ccccc2)[nH]c2c1C(=O)CC(C)(C)C2 | 0.0615 | 32.4 (≈ 13.7 µg/mL) | 7.1 | 36.5 | – | 0.0396 | 6.35 | Activity (MOLT-4 [10]): Active
Cc1ccc(NC(=O)[C@@H](CCC2CC2)NC(=O)c2[nH]c3c(c2C)C(=O)CC(C)(C)C3)cn1 | 0.176 | 50.8 (≈ 22.2 µg/mL) | 38.1 | 40.2 | – | 0.05 | 9.64 | –
CC(C)c1c(C(=O)N[C@@H](CCC2CC2)C(=O)Nc2ccc(C#N)cc2)[nH]c2c1C(=O)CC(C)(C)C2 | 0.0913 | 3.7 (≈ 1.76 µg/mL) | 70.8 | 1.8 | – | 0.055 | – | –
Cc1c(C(=O)NC(CCC2CC2)C(=O)Nc2ccc(C#N)cc2)[nH]c2c1C(=O)CC(C)(C)C2 (racemic) | – | – | – | – | 0.278 | 0.0667 | – | –
CCCCNC(=O)C(CCCC)NC(=O)c1[nH]c2c(c1C)C(=O)CC(C)(C)C2 (racemic) | – | 11 (≈ 4.28 µg/mL) | 0.8 | 30.6 | – | 1.09 | 8.73 | –
CCCCC(NC(=O)c1[nH]c2c(c1C)C(=O)CC(C)(C)C2)C(=O)Nc1ccncc1 (racemic) | – | 133 (≈ 54.6 µg/mL) | 59.4 | 15.7 | – | 1.14 | 3.63 | –
CCCCC(NC(=O)c1[nH]c2c(c1C)C(=O)CC(C)(C)C2)C(=O)Nc1ccccn1 (racemic) | – | 62.1 (≈ 25.5 µg/mL) | 25.1 | 68.8 | – | 4.26 | 11.2 | –
Cc1c(C(=O)NC(CCC2CC2)C(=O)Nc2ccccc2)[nH]c2c1C(=O)CC(C)(C)C2 (racemic) | – | – | – | – | 1.79 | – | – | –
CCCCC(NC(=O)c1[nH]c2c(c1C)C(=O)CC(C)(C)C2)C(=O)Nc1cccnc1 (racemic) | – | 143 (≈ 58.7 µg/mL) | 44.7 | 32.4 | – | 1.81 | 6.95 | –
CCCCC(NC(=O)c1[nH]c2c(c1C)C(=O)CC(C)(C)C2)C(=O)NC1CCCCC1 (racemic) | – | 15 (≈ 6.23 µg/mL) | 0 | 1.2 | – | 0.925 | 4.15 | –
